# Legend:
# Type in all cases: functional, Mus musculus
# B16 [1] = assay: Effect of compound on the body weight of mice bearing the B16 melanoma at a daily dose of 25 mg/kg
# B16 [2] = assay: Effect of compound on the survival time of mice bearing the B16 melanoma at a daily dose (mg/kg) of 50
# B16 [3] = assay: Effect of compound on the body weight of mice bearing the B16 melanoma at a daily dose of 50 mg/kg
# B16 [4] = assay: Effect of compound on the body weight of mice bearing the B16 melanoma at a daily dose of 12.5 mg/kg
# B16 [5] = assay: Effect of compound on the survival time of mice bearing the B16 melanoma at a daily dose of 25 mg/kg
# L1210 [6] = assay: Effect of compound on the survival time of mice bearing the L1210 leukemia at a daily dose (mg/kg) of 12.5-50
# L1210 [7] = assay: Effect of compound on the body weight of mice bearing the L1210 leukemia at a daily dose of 12.5-50 mg/kg
# B16 [8] = assay: Effect of compound on the survival time of mice bearing the B16 melanoma at a daily dose of 12.5 mg/kg
# B16 [9] = assay: Effect of compound on the survival time of mice bearing the B16 melanoma at a daily dose of 50 mg/kg
# L1210 [10] = assay: Effect of compound on the survival time of mice bearing the L1210 leukemia at a daily dose of 12.5-50 mg/kg
# B16 [11] = assay: Effect of compound on the survival time of mice bearing the B16 melanoma at a daily dose of 100 mg/kg
# B16 [12] = assay: Effect of compound on the survival time of mice bearing the B16 melanoma at a daily dose of 150 mg/kg
# B16 [13] = assay: Effect of compound on the survival time of mice bearing the B16 melanoma at a daily dose (mg/kg) of,50
# B16 [14] = assay: Effect of compound on the body weight of mice bearing the B16 melanoma at a daily dose of 100 mg/kg
# B16 [15] = assay: Effect of compound on the body weight of mice bearing the B16 melanoma at a daily dose of 150 mg/kg
smiles,measurement,setting,value
COC(=O)SNN(C)S(=O)(=O)c1ccc(OC)cc1,Change in weight,B16 [1],-6.4%
same,T/C,B16 [2],177%
same,Change in weight,B16 [3],-18.7%
same,Change in weight,B16 [4],-0.2%
same,T/C,B16 [5],160%
same,T/C,L1210 [6],149%
same,Change in weight,L1210 [7],-6.7%
same,T/C,B16 [8],148%
COC(=O)SNN(C)S(=O)(=O)c1ccc2ccccc2c1,Change in weight,B16 [1],1.4%
same,T/C,B16 [2],163%
same,Change in weight,B16 [3],-4.8%
same,Change in weight,B16 [4],-0.2%
same,T/C,B16 [5],140%
same,T/C,B16 [8],123%
COC(=O)SNN(C)S(=O)(=O)c1ccc(Br)cc1,Change in weight,B16 [1],-5.5%
same,T/C,B16 [2],160%
same,Change in weight,B16 [3],-11.4%
same,Change in weight,B16 [4],-2%
same,T/C,B16 [5],146%
same,T/C,L1210 [6],122%
same,Change in weight,L1210 [7],-0.2%
same,T/C,B16 [8],144%
COC(=O)SNN(C)S(=O)(=O)c1ccccc1,T/C,B16 [9],49%
same,Change in weight,B16 [1],-13%
same,Change in weight,B16 [3],-33.4%
same,Change in weight,B16 [4],-5.2%
same,T/C,B16 [5],183%
same,Change in weight,L1210 [7],-10.9%
same,T/C,L1210 [10],113%
same,T/C,B16 [8],169%
COC(=O)SNN(C)S(=O)(=O)c1ccc(C)cc1,Change in weight,B16 [1],-3.3%
same,T/C,B16 [2],232%
same,Change in weight,B16 [3],-17.7%
same,Change in weight,B16 [4],0.7%
same,T/C,B16 [5],199%
same,T/C,L1210 [6],118%
same,Change in weight,L1210 [7],-4.2%
same,T/C,B16 [8],182%
COC(=O)SNNS(=O)(=O)c1ccc(C)cc1,Change in weight,B16 [1],3.7%
same,T/C,B16 [2],98%
same,Change in weight,B16 [3],-0.4%
same,Change in weight,B16 [4],1.6%
same,T/C,B16 [5],113%
same,T/C,B16 [8],100%
COC(=O)SNN(C)S(=O)(=O)Cc1ccccc1,Change in weight,B16 [1],-14.8%
same,T/C,B16 [2],59%
same,Change in weight,B16 [3],-27.4%
same,Change in weight,B16 [4],-2.5%
same,T/C,B16 [5],157%
same,T/C,L1210 [6],100%
same,Change in weight,L1210 [7],-8%
same,T/C,B16 [8],152%
CN(C)/N=N/c1[nH]cnc1C(N)=O [DACARBAZINE],T/C,B16 [11],161%
same,T/C,B16 [12],177%
same,Change in weight,B16 [4],-2.3%
same,T/C,B16 [13],135%
same,Change in weight,B16 [14],-4.4%
same,Change in weight,B16 [15],-5.7%

# Source: ChEMBL document CHEMBL1123443, “Synthesis and evaluation of 1-(arylsulfonyl)-2-[(methoxycarbonyl)sulfenyl]-1-methylhydrazines++ + as antineoplastic agents” (1986)
